Laboratory results from patent US20080269060A1, “Herbicidal Formulation” (priority 2004, published 2008).
In brackets after ≈: the same amount, converted by molar mass. Read-outs that look alike come from different tables or passages of the source.

Tests used:
[1] = Storage stability of 1% mesotrione / isoxaflutole salt mixtures, 8 weeks at +45° C. vs −18° C.; format: physicochemical; parameters: Start: unit not given here; conditions: for 45° C. / % decomposition: 8 weeks at 45° C.; for Start: held at −18° C. 8 weeks
Description: Millbase preparations of mesotrione and isoxaflutole were made using the following method:
The sample is placed in a round bottomed flask (˜140 mls) and mixed at 150 rpm for 15 minutes until homogeneous. An equal volume of glass beads is added to the flask (0.8-1.0 mm diameter) and the sample is milled at 650 rpm of 60 minutes. The particle size was checked. Further milling of the sample continued (60 minutes for mesotrione and 150 minutes for isoxaflutole). The particle size was checked again and all particles met the specification of 5 microns (D(4,3) volume weighted mean diameter).
The samples were extracted under vacuum through a sieve to disengage the beads from the millbases. The two millbases shown below were checked for AI content and used in the preparation of the salt mixtures. The final mixtures (see below) were then placed on storage at −18° C. (controlled initial sample) and +45° C. for 8 weeks. Analysis was then carried out using validated methods. The salts used were: glyphosate potassium aqueous solution; diquat dibromide aqueous solution; paraquat dichloride aqueous solution.
Analytical Results: storage time was 8 weeks; sample denoted as “start” was held at −18° C. for the same period.

[2] = water, cited from earlier work
[3] = Amount of mesotrione in solution by UV-visible spectrophotometry in aqueous electrolyte; format: physicochemical; conditions: pH approximately 5
Description: Eight aqueous millbase formulations were made comprising mesotrione millbase (12 g/L or 10,000 approximately) and varying amounts of glyphosate-potassium, ammonium sulphate, and sodium chloride. All samples were held at a pH of approximately 5 by using phosphoric acid for adjustment. The amount of mesotrione in solution was determined using UV-visible spectrophotometry, since the aqueous solubility of mesotrione is related to the expected rate of decomposition of this active ingredient in such systems.

[4] = 1% active and diquat pH ~4, Salt % 7.50 (as diquat anion)
[5] = 1% active and diquat pH ~4, Salt % 15.00 (as diquat anion)
[6] = 1% active and diquat pH ~4, Salt % 22.50 (as diquat anion)
[7] = 1% active and paraquat pH ~4, Salt % 10.00 (as paraquat anion)
[8] = 1% active and paraquat pH ~4, Salt % 20.00 (as paraquat anion)
[9] = 1% active and paraquat pH ~4, Salt % 30.00 (as paraquat anion)
[10] = 1% active, no salt, adjusted pH 2
[11] = 1% isoxaflutole unadjusted pH 7.0, no salt
[12] = 1% active and glyphosate pH ~5, Salt % 15.00 (as glyphosate acid equivalent)
[13] = 1% active and glyphosate pH ~5, Salt % 45.00 (as glyphosate acid equivalent)
[14] = 1% mesotrione not adjusted pH 5 (pH ~4.5), no salt

In the case of `CS(=O)(=O)c1cc(C(F)(F)F)ccc1C(=O)c1cnoc1C1CC1` [Isoxaflutole, 5-cyclopropyl-4-(2-methylsulfonyl-4-trifluoromethyl)benzoylisoxazole], the “45° C.” value [1, 4] is reported as 0.94, the “% decomposition” value [1, 4] is reported as 11.30% and the Start [1, 4] is reported as 1.06. For the same compound, the “45° C.” value [1, 5] was 0.94, the “% decomposition” value [1, 5] was 9.50% and the Start [1, 5] was 1.04. For the same compound, the “45° C.” value [1, 6] was 0.87, the “% decomposition” value [1, 6] was 16.50% and the Start [1, 6] was 1.04. The “45° C.” value [1, 7] was 0.99, the “% decomposition” value [1, 7] was 6.00% and the Start [1, 7] was 1.05. For the same compound, the “45° C.” value [1, 8] was 0.90, the “% decomposition” value [1, 8] was 12.00% and the Start [1, 8] was 1.02. The “45° C.” value [1, 9] was 0.80, the “% decomposition” value [1, 9] was 7.00% and the Start [1, 9] was 0.86. For the same compound, the “45° C.” value [1, 10] was 1.02, the “% decomposition” value [1, 10] was “nil” and the Start [1, 10] was 0.98. The “45° C.” value [1, 11] was 0.85, the “% decomposition” value [1, 11] was 17.00% and the Start [1, 11] was 1.06.

With `CS(=O)(=O)c1ccc(C(=O)C2C(=O)CCCC2=O)c([N+](=O)[O-])c1` [Mesotrione, 2-(4-methylsulphonyl-2-nitrobenzoyl)cyclohexane-1,3-dione] the “45° C.” value [1, 4] was 0.96, the “% decomposition” value [1, 4] was 9.43% and the Start [1, 4] was 1.06. For the same compound, the “45° C.” value [1, 5] was 0.93, the “% decomposition” value [1, 5] was 13.08% and the Start [1, 5] was 1.07. The “45° C.” value [1, 6] was 0.86, the “% decomposition” value [1, 6] was 21.10% and the Start [1, 6] was 1.09. The “45° C.” value [1, 12] was 0.86, the “% decomposition” value [1, 12] was 18.1% and the Start [1, 12] was 1.05. For the same compound, the “45° C.” value [1, 13] was 0.80, the “% decomposition” value [1, 13] was 14.9% and the Start [1, 13] was 0.94. For the same compound, the “45° C.” value [1, 7] was 0.96, the “% decomposition” value [1, 7] was 12.73% and the Start [1, 7] was 1.10. For the same compound, the “45° C.” value [1, 8] was 0.98, the “% decomposition” value [1, 8] was 12.50% and the Start [1, 8] was 1.12. The “45° C.” value [1, 9] was 0.90, the “% decomposition” value [1, 9] was 18.18% and the Start [1, 9] was 1.10. For the same compound, the “45° C.” value [1, 10] was 0.96, the “% decomposition” value [1, 10] was 10.28% and the Start [1, 10] was 1.07. For the same compound, the “45° C.” value [1, 14] was 0.83, the “% decomposition” value [1, 14] was 34.65% and the Start [1, 14] was 1.27. For the same compound, the solubility ([2]; pH 4.8, 20° C.) was 2.2 mg/mL (≈ 6.48 mM), the solubility ([2]; pH 6.9, 20° C.) was 15 mg/mL (≈ 44.2 mM) and the solubility ([2]; pH 9, 20° C.) was 22 mg/mL (≈ 64.8 mM). For the same compound, the “Concentration of mesotrione in solution” value ([3]; Ammonium sulphate solution 100 g per litre) was 625 ppm, the “Concentration of mesotrione in solution” value ([3]; Ammonium sulphate solution 200 g per litre) was 504 ppm and the “Concentration of mesotrione in solution” value ([3]; Ammonium sulphate solution 300 g per litre) was 391 ppm. The “Concentration of mesotrione in solution” value ([3]; Ammonium sulphate solution 400 g per litre) was 271 ppm, the “Concentration of mesotrione in solution” value ([3]; Ammonium sulphate solution 500 g per litre) was 263 ppm and the “Concentration of mesotrione in solution” value ([3]; Potassium glyphosate 100 g per litre) was 1220 ppm. For the same compound, the “Concentration of mesotrione in solution” value ([3]; Potassium glyphosate 200 g per litre) was 700 ppm, the “Concentration of mesotrione in solution” value ([3]; Potassium glyphosate 300 g per litre) was 480 ppm and the “Concentration of mesotrione in solution” value ([3]; Potassium glyphosate 360 g per litre) was 290 ppm. For the same compound, the “Concentration of mesotrione in solution” value ([3]; Potassium glyphosate 400 g per litre) was 210 ppm, the “Concentration of mesotrione in solution” value ([3]; Potassium glyphosate 500 g per litre) was 180 ppm and the “Concentration of mesotrione in solution” value ([3]; Potassium glyphosate 600 g per litre) was 170 ppm. The “Concentration of mesotrione in solution” value ([3]; Potassium glyphosate 640 g per litre) was 160 ppm, the “Concentration of mesotrione in solution” value ([3]; Sodium Chloride 50 g per litre) was 605 ppm and the “Concentration of mesotrione in solution” value ([3]; Sodium Chloride 105 g per litre) was 549 ppm. For the same compound, the “Concentration of mesotrione in solution” value ([3]; Sodium Chloride 165 g per litre) was 510 ppm, the “Concentration of mesotrione in solution” value ([3]; Sodium Chloride 230 g per litre) was 479 ppm and the “Concentration of mesotrione in solution” value ([3]; Sodium Chloride 300 g per litre) was 443 ppm. For the same compound, the “Concentration of mesotrione in solution” value ([3]; electrolyte: None) was 4700 ppm.
